Here are results for 2 substances from patent publication US20170246137A1, “SULFESTROL FOR TREATING CANCER” (CHAMAELEO PHARMA BVBA, priority 2012, published 2017).

Where “and” joins values, the source holds several entries; their conditions need not be identical. Identical values can stand only once.

Data set [1] relates to platelet-rich plasma (PRP). As to the kind of experiment: Platelet-aggregation-inducing effects in platelet-rich plasma, absorbance 630 nm. The class given is cell-based. Particulars: 7 minutes, human PRP. Here is the method: Blood necessary to generate PRP was obtained from 4 healthy human volunteers. 100 ml of fresh venous blood from each donor was isolated directly into tubes containing 1/10th volume of the anti-coagulant Tri-Sodium Citrate (3.2% w/v). The blood and anti-coagulant were immediately mixed and the final concentration of Tri-Sodium Citrate was 0.0106 M.
PRP was prepared by centrifugation of anti-coagulated blood at 180 g for 10 minutes at room temperature. The cloudy yellow supernatant containing the platelets was removed and placed into a clean polypropylene tube. Platelet-poor plasma (PPP) was prepared by centrifuging the remaining sample at 1,200 g for 20 minutes at room temperature. The PRP was adjusted to a suitable platelet count and absorbance at 630 nm by addition of PPP.
All three compounds were dissolved in 100% DMSO to give a stock concentration of 60 mM. […] […] 100 nM gamma thrombin (Cambridge bioscience) was used as control for platelet aggregation. 90 μl aliquots of PRP were added to 96 wells plates. A baseline absorbance reading was taken at 630 nm. 5 μl of the compounds and gamma thrombin control was added to the appropriate PRP.
The plates were incubated at room temperature for 7 minutes on a plate shaker with continuous shaking. A second A630 nm reading was made after the 7 minutes incubation to measure any platelet aggregation induced by the compounds.

The nature of data set [2]: Estrogenic activity: body weight and plasma cholesterol levels. The data set is classed as in vivo, male Sprague-Dawley rats. Particulars: for Mean bodyweight: in g (unit assumed). Here is the method:
Estrogenic activity was determined by measuring body weight and plasma cholesterol levels.
Each animal was dosed three times a day with vehicle or test compound (1st dose 7:30-8:00, 2nd dose 12:30-13:00, 3rd dose 17:00-17:30) for 14 consecutive days.
After 14 days treatment, blood was collected from the animals via cardiac puncture 4 hrs past final dosing to analyze plasma cholesterol levels. The blood was immediately transferred to a tube containing 0.5M EDTA anticoagulant. It was mixed gently and centrifuged at 1000×g at 4° C. for 15 min. Plasma was aspirated from the centrifuged blood samples, quick frozen on dry ice and stored at −80° C. for later use.
Plasma cholesterol levels were determined using a commercial ELISA kit obtained from NovaTeinBio (BG-RAT11262). Standard protocol accompanied by the kit was used without any adjustments.

Another data set deals with MDA-MB-231 Dlux. As to the kind of experiment: Orthotopic spontaneous metastasis breast model, whole body bioluminescence. As to conditions: for total flux, whole body bioluminescence: mono-Sulfestrol 60 mg/kg, di-Sulfestrol 80 mg/kg orally once a day. The data set is classed as in vivo, female MF-1 nude mice. Here is the method:
Female MF-1 nude mice (HsdOla:MF1-Foxn1nu, Harlan, UK) were divided into 3 groups of each 8 mice (n=8):
The mice were 5-6 weeks old at the start of the study and were maintained in sterile isolators within a barriered unit illuminated by fluorescent lights set to give a 12 hour light-dark cycle (on 07.00, off 19.00). The room was air-conditioned to maintain an air temperature range of 23±2° C. Sterile irradiated 2019 rodent diet (Harlan Teklad UK, product code Q219DJ1R2) and autoclaved water were offered ad libitum.
The MDA-MB-231 Dlux cells were maintained in vitro in RPMI containing 2 mM L-Glut and (Life Technologies, UK) and 10% (v/v) heat-inactivated foetal bovine serum (Sigma, Poole, UK) at 37° C. in 5% CO2 and humidified conditions. Cells were treated with Zeocin once a week at 0.4 mg/mL.
On the day of initiation cells were harvested from semi-confluent monolayers with 0.05% Trypsin-EDTA, washed twice in the culture medium and counted. Cells with viability of >90% were re-suspended, for in vivo administration, in 1:1 PBS:Matrigel at 2×10^6 cells/0.1 mL. Prior to injection, the cell suspension was homogenized and 0.1 mL of cell suspension was drawn into a 1 mL syringe. The cell suspension was then injected orthotopically into the lower left-side 2nd mammary fat pad of each mouse under anaesthesia (Medetomidine/Ketamine).
On day 7 after initiation and every six days thereafter, the mice were injected (s.c.) with 150 mg/kg D-Luciferin. 10 minutes following administration of D-Luciferin mice were anaesthetised and 15 minutes after administration they were placed into an imaging chamber (Spectrum CT) and imaged for luminescence (ventral view; whole body and shielding of the primary tumor). Images were captured and processed by Living Image 4.3.1 software (Caliper LS, US.).
On day 7 after initiation mice were assigned to groups such that there was a uniform mean bioluminescent signal between the groups.

The conditions of data set [3]: cited from earlier work.
For data set [4] the following is noted: cited from earlier work. The source holds these as a separate data set.
Data set [5] can be described thus: In vitro metabolism in human liver microsomes (STS and CYP). The class given is in vitro ADME. On the set-up: Clint: unit not given here. Here is the method: In vitro metabolism pathways of DES, Mono-Sulfestrol and Di-Sulfestrol in human liver microsomes were investigated.
Special emphasis was put on desulfatation by steroid sulfatase (STS) and oxidation by cytochrome P (CYP) metabolism. Liver microsomes (Celsis in vitro Technologies) were used at a concentration of 0.5 mg/ml in a volume of 600 μl phosphate buffer pH 7.4. Estrone-3-sulfate was used as positive control.
5 μM of each compound (test and control compound) was added to the liver microsomes and the mixture was incubated at 37° C. for 5, 10, 20, 30, 50, 90 and 120 minutes. After incubation, aliquots of 45 μl were taken which were subsequently quenched with 150 μl ice cold methanol. Aliquots were incubated ≧1 h at −20° C. for protein precipitation. After precipitation, samples were centrifuged and remaining supernatant was used for analysis with LC-MS/MS. Half life of the compounds, speed of metabolism or intrinsic clearance (Clint), and contribution to metabolism of CYP and STS metabolism were calculated based on the data obtained at each time point.
Background: Liver microsomes are a subcellular fraction often used to study metabolism.

Data set [6] in a line: Concentration of Mono-Sulfestrol in pooled plasma samples, LC-UV quantification. Particulars: 10 mg/kg of the labelled compound, rat, pooled 0.5-8 hrs. The data set is classed as in vivo, male Sprague Dawley rats. Here is the method: The concentration of Mono-Sulfestrol in the pooled samples described in Example 6 was quantified by LC-UV quantification.
A calibration standard solution was prepared as 10,000 ng/mL by adding an appropriate amount of Mono-Sulfestrol into 20% acetonitrile/0.1% formic acid in water. The peak area of the standard solution and the sample were measured with the wavelength set at 200 to 360 nm. The concentration levels of Mono-Sulfestrol were estimated using peak area (Area) of the standard and unknown samples and concentration of the standard (Concstd) by the following equation:
Areaunknown/Areastd=Concunknown/Concstd
Concunknown=Concstd·(Areaunknown/Areastd)

The nature of data set [7]: Metabolites in plasma after oral and intravenous administration, LC-MS/MS. Particulars: 10 mg/kg oral and intravenous.
Protocol: Metabolites were identified after oral and intravenous administration of the compounds.
Each group consisted of three rats, giving a total of 12 animals. Compounds were dosed at 10 mg/kg for both oral and intravenous administration. A 0.9% saline solution was used as vehicle for oral and intravenous administration.
Prior to intravenous administration, the solution was filtered through a 0.22 μM filter. Oral dosing was performed using a oral gavage. Tail vein injection was used for intravenous administration.
At 0.5, 1, 2, 4, 6 and 8 hrs post administration, 0.25 ml blood was drawn from the animals and immediately transferred to prechilled microcentrifuge tubes containing 4 μl of K2-EDTA to prevent coagulation. Plasma was obtained by centrifugation of the plasma and stored at −70° C. until analysis. Plasma drawn from each individual rat was pooled according to the following schedule:
The pooled samples were analyzed using LC-MS/MS and the relative percentage of each metabolite in the pooled sample was measured on the basis of the mass spectrometric peak areas of the parent and its metabolites in the plasma.
For data set [8] the following is noted: orally administered, daily doses of 2 mg; cited from earlier work.
Where [9] appears, read: nothing added (STS active, CYP inactive), 5 μM.

For the substance “4,4′-(hex-3-ene-3,4-diyl)bis(4,1-phenylene) disulfate [Di-Sulfestrol]”, the “Absorbance (630 nm)” value in [1] (2.3 μM, high absorbance = low aggregation) is recorded as 0.260 ± 0.030; in data set [1] (4.7 μM), 0.253 ± 0.024; in data set [1] (9.4 μM), 0.266 ± 0.039; in [1] (18.75 μM) it was 0.254 ± 0.025; in [1] (37.5 μM) it was 0.260 ± 0.027; in data set [1] (75 μM) it was 0.264 ± 0.031. In addition, the “Absorbance (630 nm)” value in data set [1] (150 μM) amounted to 0.266 ± 0.034. For the same substance, the Mean bodyweight in data set [2] (Day 0, DES 1.5 mg/kg per day, Di-Sulfestrol 3 mg/kg per day, three doses a day) is given as 387 ± 6.9; in data set [2] (Day 2), 381 ± 8.3; in data set [2] (Day 4), 368 ± 9.5; in [2] (Day 6), 357 ± 9.2; in data set [2] (Day 8), 348 ± 8.5; in data set [2] (Day 10) it was 344 ± 7.2. Besides, the Mean bodyweight is reported as 341 ± 7.5 in data set [2] (Day 12) and 333 ± 6.67 in data set [2] (Day 14). Moreover, the “Cholesterol (plasma)” value in data set [2] (after 14 days treatment, 4 hrs past final dosing, DES 1.5 mg/kg per day, Di-Sulfestrol 3 mg/kg per day) amounted to 12.1 ± 0.799 nmol/L. In addition, the “estrogenic activity in rats (in words)” value in data set [2] (lowering body weight and cholesterol levels) is “show estrogenic activity”. In addition, the “total flux, whole body bioluminescence” value with MDA-MB-231 Dlux (Day 7 (before start of treatment)) is given as 1.73 10^9 photons/second; with MDA-MB-231 Dlux (Day 13), 8.84 10^9 photons/second; in the data set on MDA-MB-231 Dlux (Day 19), 16.2 10^9 photons/second. Moreover, the “effect on tumor progression (in words)” value with MDA-MB-231 Dlux (oral, MDA-MB-231 Dlux in mice) was “tumor progression inhibiting effect”. In [3] (mice, intravenously injectable), the “tolerance (in words)” value is “well tolerated in mice”. The “estrogenic activity (in words)” value in data set [3] (mouse, in vivo) is “has estrogenic activity”. For the same substance, the “water solubility (in words)” value in data set [4] is “water soluble”. The “metabolism pathway in human liver microsomes (in words)” value in data set [5] is on record as “only metabolized by STS enzymes”. This substance also showed a Clint in data set [5] (setting [9]) of 31. In data set [5] (setting [9]), this substance came in with a Contribution to metabolism of 85%. The substance also registered a Half-life in [5] (setting [9]) of 45 min. For the same substance, the “Mono-Sulfestrol concentration in pooled plasma sample” value in [6] (intravenous) was 735.9 ng/ml and 1.7 μM; in data set [6] (oral), 261.3 ng/ml and 0.6 μM. In [7], the “metabolic fate in rat plasma (in words)” value is “mostly converted into Mono-Sulfestrol”.
For stilbestrol sulfate, in data set [8], the “estrogenic activity relative to stilbestrol” value is 44%.
